US20250236611A1, “PYRAZOLE COMPOUNDS AND USES THEREOF” (ALCON INC., priority 2021, published 2025)

What was measured:
Type in all cases: biochemical
Settings in all cases: 10 nM JAK enzyme, 800 nM Abl peptide, room temperature 75 min
JAK1 = JAK1 (Homo sapiens, UniProt P23458); experiment: JAK assay (KINASE-GLO luminescent kinase assay), JAK1
Method: (§1) All compounds were initially prepared as 10 mM stocks in anhydrous dimethylsulfoxide (DMSO). A 20 μL aliquot of the 10 mM solutions was transferred to individual wells in column 1 of a 96-well polypropylene microtiter plate (Corning #3363) and diluted with DMSO to give a final compound concentration of 4 mM. Test compounds were then serially diluted 1:5 in DMSO for an 11-point concentration response and further diluted in the assay buffer bringing all compound concentrations to a final range of 100 μM to 10 pM in 2.5% DMSO. The assay was performed in white 96-well, flat-bottom, half-area, non-binding assay plate (Corning #3642) in assay buffer consisting of 20 mM HEPES (pH 7.5), 10 mM MgCl2*6H2O, 100 μM sodium orthovanadate, 0.05% CHAPS and 0.1% bovine serum albumin. A 10 μL aliquot of compound from each well of the intermediate dilution plate and 20 μL of a 2×JAK substrate/enzyme solution containing acceptor substrate (800 nM Abl peptide), JAK enzyme (10 nM JAK1, JAK2, JAK3, or TYK2), and 1,4-Dithiothreitol (DTT, 2 μM) were added to all wells. The reaction was initiated by the addition of 10 μL of 4× stock solution ATP (2 μM). Reactions were thoroughly mixed manually, covered and allowed to incubate at room temperature for 75 min. Protein kinase activity was quantitated using Promega's KINASE-GLO™ luminescent Kinase Assay Kit according to the manufacturer's directions. ATP concentrations remaining in Test wells following the termination of the enzymatic reaction were compared against control wells containing equivalent amounts of DMSO containing no inhibitor (CTRL). […] Percent of Control (POC) values were determined for each concentration of compound tested according to the equation:
(§2) [formula] • IC50 values were calculated using the following 4-parameter logistic curve-fitting algorithm:
(§3) [formula] • IC50 values were converted to Ki values using the Cheng-Prusoff Equation: […]

TYK2 = TYK2 (Homo sapiens, UniProt P29597); experiment: JAK assay (KINASE-GLO luminescent kinase assay), TYK2
Sequence of TYK2 (P29597 whole entry): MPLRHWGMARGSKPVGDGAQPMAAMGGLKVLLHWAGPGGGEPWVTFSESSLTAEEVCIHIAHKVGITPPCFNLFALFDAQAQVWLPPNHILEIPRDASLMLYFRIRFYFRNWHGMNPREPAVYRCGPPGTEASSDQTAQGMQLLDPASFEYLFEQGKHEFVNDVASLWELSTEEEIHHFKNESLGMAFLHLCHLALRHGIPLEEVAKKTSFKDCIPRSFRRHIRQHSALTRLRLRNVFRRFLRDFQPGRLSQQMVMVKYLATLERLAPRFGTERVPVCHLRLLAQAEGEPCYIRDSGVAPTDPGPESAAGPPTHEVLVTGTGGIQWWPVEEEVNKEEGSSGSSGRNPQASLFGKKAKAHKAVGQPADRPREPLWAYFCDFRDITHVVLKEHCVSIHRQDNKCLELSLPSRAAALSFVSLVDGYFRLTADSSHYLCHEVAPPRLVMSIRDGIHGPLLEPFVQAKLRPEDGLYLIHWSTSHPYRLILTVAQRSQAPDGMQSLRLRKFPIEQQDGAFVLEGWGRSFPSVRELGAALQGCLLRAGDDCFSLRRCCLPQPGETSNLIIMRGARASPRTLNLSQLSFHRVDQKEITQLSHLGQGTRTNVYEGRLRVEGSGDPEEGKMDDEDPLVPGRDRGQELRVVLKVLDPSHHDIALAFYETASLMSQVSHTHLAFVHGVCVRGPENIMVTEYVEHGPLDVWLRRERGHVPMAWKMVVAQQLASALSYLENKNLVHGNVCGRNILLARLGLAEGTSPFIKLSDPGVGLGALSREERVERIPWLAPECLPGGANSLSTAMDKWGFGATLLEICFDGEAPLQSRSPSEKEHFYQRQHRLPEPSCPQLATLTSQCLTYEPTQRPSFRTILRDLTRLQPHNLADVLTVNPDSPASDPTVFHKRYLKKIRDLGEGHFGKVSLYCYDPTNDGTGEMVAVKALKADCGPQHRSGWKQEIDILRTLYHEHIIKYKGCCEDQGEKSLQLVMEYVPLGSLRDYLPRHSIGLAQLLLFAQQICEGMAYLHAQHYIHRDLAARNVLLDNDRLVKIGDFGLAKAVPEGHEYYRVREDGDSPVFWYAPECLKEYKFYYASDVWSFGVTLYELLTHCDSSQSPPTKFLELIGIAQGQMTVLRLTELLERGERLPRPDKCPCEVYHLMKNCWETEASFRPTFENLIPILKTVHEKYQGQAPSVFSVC
Method: as §1, with “A 20 μL aliquot of the 10 mM solutions was transferred to individual wells in column 1 of a 96-well polypropylene microtiter plate (Corning #3363) and diluted with DMSO to give a final compound concentration of 4 mM.” left out
as §2, §3

JAK3 = molecular target: T1, JAK3 (Homo sapiens, UniProt P52333); experiment: JAK assay (KINASE-GLO luminescent kinase assay), JAK3
T1 sequence (P52333 1-1124): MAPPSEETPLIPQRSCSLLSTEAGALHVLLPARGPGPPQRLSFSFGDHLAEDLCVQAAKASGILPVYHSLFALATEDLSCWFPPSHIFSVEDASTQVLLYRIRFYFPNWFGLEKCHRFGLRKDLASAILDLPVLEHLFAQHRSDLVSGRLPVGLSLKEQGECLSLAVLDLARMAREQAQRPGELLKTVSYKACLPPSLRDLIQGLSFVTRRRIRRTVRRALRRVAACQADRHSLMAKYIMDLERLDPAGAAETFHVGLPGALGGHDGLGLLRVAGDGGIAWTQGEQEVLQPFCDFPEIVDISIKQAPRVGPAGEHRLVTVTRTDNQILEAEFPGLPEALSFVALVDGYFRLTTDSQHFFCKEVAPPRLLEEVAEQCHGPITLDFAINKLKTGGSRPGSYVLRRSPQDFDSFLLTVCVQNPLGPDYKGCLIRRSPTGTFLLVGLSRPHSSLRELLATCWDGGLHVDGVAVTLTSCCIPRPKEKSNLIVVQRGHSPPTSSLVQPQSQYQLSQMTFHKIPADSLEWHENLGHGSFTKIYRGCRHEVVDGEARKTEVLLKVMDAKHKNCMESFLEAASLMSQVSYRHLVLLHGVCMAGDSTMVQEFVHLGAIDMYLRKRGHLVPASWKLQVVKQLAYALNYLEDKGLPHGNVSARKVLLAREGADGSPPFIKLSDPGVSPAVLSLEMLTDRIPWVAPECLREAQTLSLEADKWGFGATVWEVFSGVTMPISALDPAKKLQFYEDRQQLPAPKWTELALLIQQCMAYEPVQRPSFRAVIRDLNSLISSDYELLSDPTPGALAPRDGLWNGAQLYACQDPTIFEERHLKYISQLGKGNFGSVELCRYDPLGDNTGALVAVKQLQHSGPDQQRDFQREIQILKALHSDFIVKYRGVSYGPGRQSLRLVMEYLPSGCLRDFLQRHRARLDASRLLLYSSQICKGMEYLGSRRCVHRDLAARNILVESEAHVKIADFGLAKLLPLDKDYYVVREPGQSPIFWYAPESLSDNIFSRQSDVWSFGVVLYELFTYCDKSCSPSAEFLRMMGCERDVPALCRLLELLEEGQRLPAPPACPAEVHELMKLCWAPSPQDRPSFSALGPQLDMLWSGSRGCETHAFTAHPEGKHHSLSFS
Method: as §1, §2, §3

JAK2 = JAK2 (Homo sapiens, UniProt O60674); experiment: JAK assay (KINASE-GLO luminescent kinase assay), JAK2
Sequence of JAK2 (O60674 whole entry): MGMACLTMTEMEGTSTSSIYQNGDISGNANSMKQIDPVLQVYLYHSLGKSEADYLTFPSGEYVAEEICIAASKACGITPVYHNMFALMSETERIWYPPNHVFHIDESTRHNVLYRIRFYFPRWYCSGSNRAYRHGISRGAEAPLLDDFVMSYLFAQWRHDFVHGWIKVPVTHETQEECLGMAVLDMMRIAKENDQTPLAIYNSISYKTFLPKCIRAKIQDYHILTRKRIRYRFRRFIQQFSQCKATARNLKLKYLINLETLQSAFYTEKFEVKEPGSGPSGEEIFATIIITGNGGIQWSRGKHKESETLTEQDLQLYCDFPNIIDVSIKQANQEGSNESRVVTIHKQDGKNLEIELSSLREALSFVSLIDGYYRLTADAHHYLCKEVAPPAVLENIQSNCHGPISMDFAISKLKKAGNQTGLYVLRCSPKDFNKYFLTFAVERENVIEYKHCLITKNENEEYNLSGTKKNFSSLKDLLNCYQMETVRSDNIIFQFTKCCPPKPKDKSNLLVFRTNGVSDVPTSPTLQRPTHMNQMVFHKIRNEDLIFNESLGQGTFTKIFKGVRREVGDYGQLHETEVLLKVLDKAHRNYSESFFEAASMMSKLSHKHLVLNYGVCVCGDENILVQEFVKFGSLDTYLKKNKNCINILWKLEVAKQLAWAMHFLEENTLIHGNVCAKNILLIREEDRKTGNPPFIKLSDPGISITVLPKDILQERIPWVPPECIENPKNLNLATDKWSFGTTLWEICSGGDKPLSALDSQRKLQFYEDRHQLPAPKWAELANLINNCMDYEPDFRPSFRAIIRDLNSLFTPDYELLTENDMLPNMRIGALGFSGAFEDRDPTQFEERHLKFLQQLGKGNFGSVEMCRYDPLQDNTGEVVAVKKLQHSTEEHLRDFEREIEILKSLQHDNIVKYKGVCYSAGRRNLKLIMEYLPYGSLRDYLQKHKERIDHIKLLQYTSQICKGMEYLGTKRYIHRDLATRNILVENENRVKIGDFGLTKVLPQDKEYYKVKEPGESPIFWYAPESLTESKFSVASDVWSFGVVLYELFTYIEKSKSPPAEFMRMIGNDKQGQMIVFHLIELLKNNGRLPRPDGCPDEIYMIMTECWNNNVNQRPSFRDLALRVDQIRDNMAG
Method: as §1, §2, §3

Sequence of JAK1 (P23458 whole entry): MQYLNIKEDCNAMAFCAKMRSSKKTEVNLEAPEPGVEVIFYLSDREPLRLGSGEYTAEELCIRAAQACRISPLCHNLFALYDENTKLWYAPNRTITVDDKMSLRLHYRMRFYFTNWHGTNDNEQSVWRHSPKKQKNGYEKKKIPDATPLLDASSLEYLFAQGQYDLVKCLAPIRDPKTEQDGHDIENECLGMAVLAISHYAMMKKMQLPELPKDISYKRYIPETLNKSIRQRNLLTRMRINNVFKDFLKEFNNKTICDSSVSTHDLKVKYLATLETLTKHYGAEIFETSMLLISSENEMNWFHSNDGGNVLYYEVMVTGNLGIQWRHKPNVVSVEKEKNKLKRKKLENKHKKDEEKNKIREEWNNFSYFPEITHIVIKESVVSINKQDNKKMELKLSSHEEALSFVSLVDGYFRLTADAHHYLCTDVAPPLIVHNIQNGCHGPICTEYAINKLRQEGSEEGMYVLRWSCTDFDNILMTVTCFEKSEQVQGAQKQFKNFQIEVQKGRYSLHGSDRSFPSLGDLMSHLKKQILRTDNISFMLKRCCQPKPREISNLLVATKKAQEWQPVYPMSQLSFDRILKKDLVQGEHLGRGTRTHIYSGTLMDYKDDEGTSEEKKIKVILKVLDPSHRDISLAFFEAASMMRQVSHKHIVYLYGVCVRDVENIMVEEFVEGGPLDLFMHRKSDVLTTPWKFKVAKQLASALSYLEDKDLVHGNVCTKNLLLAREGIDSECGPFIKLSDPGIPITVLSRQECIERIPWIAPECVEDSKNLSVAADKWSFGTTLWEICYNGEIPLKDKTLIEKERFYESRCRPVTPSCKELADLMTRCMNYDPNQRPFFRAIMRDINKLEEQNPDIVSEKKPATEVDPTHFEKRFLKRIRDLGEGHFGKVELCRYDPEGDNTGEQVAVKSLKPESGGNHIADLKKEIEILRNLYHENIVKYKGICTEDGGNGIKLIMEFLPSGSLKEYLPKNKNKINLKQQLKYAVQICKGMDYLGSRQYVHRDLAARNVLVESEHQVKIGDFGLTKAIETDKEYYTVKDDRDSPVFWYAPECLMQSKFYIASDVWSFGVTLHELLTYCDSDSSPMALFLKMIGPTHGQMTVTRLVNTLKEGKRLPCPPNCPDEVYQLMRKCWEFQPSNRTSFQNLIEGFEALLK

Row | SMILES | IC50 (JAK1) [nM] | IC50 (TYK2) [nM] | IC50 (JAK3) [nM] | IC50 (JAK2) [nM]
1 | Cc1cnc(NCCO)nc1-c1cnn(CCC#N)c1 [CC1═C(N═C(NCCO)N═C1)C2═C[N]] | < 100000 | < 100000 | < 100000 | < 100000
2 | CC(C)(C)OC(=O)N1CCC(Nc2ncc(Cl)c(-c3cnn(CCC#N)c3)n2)C(F)(F)C1 (centres unmarked) [CC(C)(C)OC(═O)N1CCC(NC2═NC(═C] | > 50000 | > 50000 | > 50000 | > 50000
3 | N#CC1(Cn2cc(-c3nc(Nc4cnc5ccnn5c4)ncc3Cl)cn2)CCC1 [ClC1═C(N═C] | < 100000 | < 1000 | < 1000 | < 100
4 | N#CCCn1cc(-c2nc(Nc3cccc(CN4CC(F)C4)c3)ncc2Cl)cn1 [FC1CN(C1)CC2═CC═CC(═C2)NC3═NC(═C] | < 100 | < 10 | < 10 | < 10
5 | Cc1cnc(Nc2ccc(S(C)(=O)=O)c(F)c2)nc1-c1cnn(CC2(Cl)CC2)c1 [CC1═C(N═C(NC2═CC═C(C(═C2)F)[S]] | < 100 | < 10 | < 100 | < 10
6 | Cc1cnc(Nc2ccc(CNC(=O)[C@H](C)NC(=O)OC(C)(C)C)cc2)nc1-c1cnn(CC2(CF)CC2)c1 [C[C@H](NC(═O)OC(C)(C)C)C] | < 100 | < 100 | < 100 | < 10
7 | Cc1cnc(Nc2cccc(C(N)=O)c2)nc1-c1cnn(CC2(CF)CC2)c1 [CC1═C(N═C(NC2═CC(═CC═C2)C] | < 100 | < 10 | < 100 | < 10
8 | Cc1cnc(Nc2ccc3c(c2)CN(C)C3)nc1-c1cnn(CC2(CF)CC2)c1 [CN1CC2═CC═C(NC3═NC(═C] | < 10 | < 10 | < 10 | < 10
9 | Cc1cnc(Nc2ccc(N3CC4(COC4)C3)cc2)nc1-c1cnn(CC2(CF)CC2)c1 [CC1═C(N═C(NC2═CC═C(C═C2)N3CC4] | < 100 | < 100 | < 10 | < 10
10 | COCCOCc1cc(Nc2ncc(C)c(-c3cnn(CC4(CF)CC4)c3)n2)sn1 [COCCOCC1═NSC(═C1)NC2═NC(═C] | < 1000 | < 1000 | < 1000 | < 1000
11 | Cc1cnc(Nc2ccc(N3CC4(COC4)C3)cc2)nc1-c1cnn(CC2(CF)CC2)c1 [CC1═C(N═C(NC2═CC(═C(C═C2)N3CC4] | < 100 | < 10 | < 10 | < 10
12 | N#CC1(Cn2cc(-c3nc(Nc4ccns4)ncc3Cl)cn2)CCC1 [ClC1═C(N═C(NC2═CC═NS2)N═C1)C3═C[N]] | < 100 | < 100 | < 100 | < 10
13 | Cc1cnc(Nc2cc(C(=O)O)ns2)nc1-c1cnn(CC2(CF)CC2)c1 [CC1═C(N═C(NC2═CC(═NS2)C] | < 100 | < 100 | < 100 | < 10
14 | Cc1cnc(Nc2ccc(CNC(=O)CCN(C)C)cc2)nc1-c1cnn(CC2(CF)CC2)c1 [CN(C)CCC(═O)NCC1═CC═C(NC2═NC(═C] | < 100 | < 100 | < 100 | < 10
15 | Cn1ccc(Nc2ncc(Cl)c(-c3cnn(CC4(C#N)COC4)c3)n2)cc1=O [CN1/C═C\C(═C/C1═O)NC2═NC(═C] | < 1000 | < 1000 | < 1000 | < 10
16 | Cc1cnc(Nc2cn(C)nn2)nc1-c1cnn(CC2(CF)CC2)c1 [C[N]1C═C(NC2═NC(═C(C)C═N2)C3═C[N]] | < 1000 | < 1000 | < 1000 | < 100
17 | CN1CCN(c2ccc(Nc3ncc(Cl)c(-c4cnn(CC5(C#N)CC5)c4)n3)cn2)CC1 [CN1CCN(CC1)C2═NC═C(NC3═NC(═C] | < 100000 | < 100000 | < 100000 | < 1000
18 | Cc1cnc(Nc2ccc(C(=O)N(C)C)cc2)nc1-c1cnn(CC2(CF)CC2)c1 [CN(C)C(═O)C1═CC═C(NC2═NC(═C] | < 100 | < 100 | < 100 | < 10
19 | CC(C)(C)OC(=O)N1CCN(c2ccc(Nc3ncc(Cl)c(-c4cnn(CCC#N)c4)n3)cc2)CC1 [CC(C)(C)OC(═O)N1CCN(CC1)C2═CC═C] | < 100 | < 10 | < 10 | < 10
20 | Cc1cnc(Nc2ccc(N3CCN(C)CC3)cc2)nc1-c1cnn(CC2(C#N)CC2)c1 [CN1CCN(CC1)C2═CC═C(NC3═NC(═C(C([2H])] | < 100 | < 10 | < 10 | < 10
21 | Cc1cnc(Nc2ccc(N3CCN(C(=O)OC(C)(C)C)CC3)cc2)nc1-c1cnn(CC2(CF)CC2)c1 [CC1═C(N═C(NC2═CC═C(C═C2)N3CCN] | < 1000 | < 100 | < 100 | < 10
22 | Cc1cnc(Nc2cc(CN3CCN(C)CC3)ns2)nc1-c1cnn(CC2(CF)CC2)c1 [CN1CCN(CC1)CC2═NSC(═C2)NC3═NC] | < 1000 | < 100 | < 100 | < 10
23 | Cc1cc(Nc2ncc(C)c(-c3cnn(CC4(CN(C)C)CC4)c3)n2)sn1 [CN(C)CC1(CC1)C[N]2C═C(C═N2)C3═C] | < 100 | < 100 | < 100 | < 10
24 | CNC1(Cn2cc(-c3nc(Nc4cc(C)ns4)ncc3Cl)cn2)CC1 [CNC1(CC1)C[N]2C═C(C═N2)C3═C] | < 100 | < 100 | < 10 | < 10
25 | N#CCC1(Cn2cc(-c3ccnc(Nc4cc(CO)ns4)n3)cn2)CC1 [OCC1═NSC(═C1)NC2═NC(═CC═N2)C3═C[N]] | < 100 | < 10 | < 100 | < 10
26 | Cc1cnc(Nc2ccc(N3CCN(C)CC3)cc2)nc1-c1cnn(CC2(F)CC2)c1 [CN1CCN(CC1)C2═CC═C(NC3═NC(═C(C] | < 100 | < 10 | < 10 | < 10
